Data published in patent US9289411B2, “Anti-HCV agent” (NATIONAL UNIVERSITY CORPORATION OKAYAMA UNIVERSITY, priority 2011, dated 2016).
Values joined by “and” are separate entries in the source; they are usually repeats but may differ in a detail not shown here. Equal values may be shown once.

Key:
[1] = Cytotoxic effect, WST-1 cell proliferation assay in ORL8 cells; conditions: human
Text: (§1) Assay systems using OR6 cells (HCV-O strain), 1B-4R cells (HCV-1B-4 strain), and AH1R cells (HCV-AH1R strain) as HuH-7 cell-derived full-length HCV-RNA-replicating cells, and ORL8 cells (HCV-O strain), ORL11 cells (HCV-O strain), 1B-4RL cells (HCV-1B-4 strain), and KAH5RL cells (HCV-KAH5 strain) as Li23 cell-derived full-length HCV-RNA-replicating cells were used for the quantitative analysis of anti-HCV activity and evaluation of a cytotoxic effect in the present invention. The three cell lines, i.e., the 1B-4R cells, the 1B-4RL cells, and the KAH5RL cells have been disclosed in WO 2010/026965 A1. The AH1R cells may be produced with reference to Mori K et al., BBRC, 371:104-109, 2008 and WO 2010/026965 A1. In addition, all the HCV strains belong to genotype 1b.
(§2) In the measurement of the renilla luciferase activity and the measurement by the WST-1 method, experiments were performed in three wells independent of each other, and their means and standard deviation were calculated.
The cytotoxic effects of N-89 and N-251 were examined using ORL8 cells and the CC50 values were calculated. An experimental scale and schedule are the same as those in Example 1.
N-89 and N-251 were added so as to achieve concentrations of 5 μM, a 2-fold dilution series from 5 μM (2.5, 1.3, 0.63, 0.31, 0.16, and 0.08 μM), and 0. The WST-1 cell proliferation assay was performed 72 hours after the culture.
The cytotoxic effect of artemisinin was examined using OR6 and ORL8 cells and the CC50 values were calculated. An experimental scale and schedule are the same as those in Example 1. Artemisinin was added so as to achieve concentrations of 400 μM, a 2-fold dilution series from 400 μM (200, 100, 50, 25, and 13 μM), and 0. The WST-1 cell proliferation assay was performed 72 hours after the culture.

[2] = system: HCV-RNA replication in ORL8 cells; assay: Influence of oxidizing agents KNO3 and NaClO4 on anti-HCV activity in ORL8 cells; assay type: cell-based, HCV genotype 1b; conditions: 10 μM, 72 hours
Method: The effects of addition of KNO3 and NaClO4 on the anti-HCV activity of N-89 were examined using ORL8 cells.
N-89 and KNO3 or NaClO4 were simultaneously added so that the concentrations of N-89 and KNO3 or NaClO4 were set to 0.5 μM and 10 μM, respectively. The luciferase activity was measured 72 hours after the culture.

[3] = system: HCV-RNA replication in ORL8 cells (HCV-O strain, Li23-derived); assay: microbe, parasite or virus in culture
Text: as §1
(§3) As necessary, an increase or decrease in expression level of an HCV protein (core protein) was examined by a Western blot method.
as §2
The anti-HCV activities of N-89 and N-251 were examined using ORL8 cells and the EC50 values were calculated. An experimental scale and schedule are the same as those in Example 1.
N-89 and N-251 were added so as to achieve concentrations of 5 μM, a 2-fold dilution series from 5 μM (2.5, 1.3, 0.63, 0.31, 0.16, and 0.08 μM), and 0. The luciferase activities were measured 72 hours after the culture.
(§4) The anti-HCV activity of artemisinin was examined using OR6 cells and ORL8 cells and the EC50 values were calculated. An experimental scale and schedule are the same as those in Example 1.
(§5) Artemisinin was added so as to achieve concentrations of 100 μM, a 2-fold dilution series from 100 μM (50, 25, 13, 6.3, 3.1, and 1.6 μM), and 0. The luciferase activities were measured 72 hours after the culture.

[4] = system: HuH-7-derived HCV-replicon-replicating cells; conditions: Paeshuyse J et al., BBRC 2006; cited from earlier work
[5] = system: HCV-RNA replication in ORL8 cells; assay: Effect of antioxidant vitamin E on anti-HCV activity in ORL8 cells (luciferase activity); assay type: cell-based, HCV genotype 1b; conditions: for canceling of the anti-HCV activity by vitamin E: vitamin E 10 μM
Method: The effect of addition of vitamin E on the anti-HCV activity of N-89 was examined using ORL8 cells. An experimental scale and schedule are the same as those in Example 1.
N-89 and vitamin E were simultaneously added so that the concentrations of N-89 and vitamin E were set to 0.5 μM and 10 μM, respectively. The luciferase activity was measured 72 hours after the culture.
The effect of addition of vitamin E on the anti-HCV activity of N-251 was examined using ORL8 cells. An experimental scale and schedule are the same as those in Example 1.
N-251 and vitamin E were simultaneously added so that the concentrations of N-251 and vitamin E were set to 0.5 μM and 10 μM, respectively. The luciferase activity was measured 72 hours after the culture.
The effect of addition of vitamin E on the anti-HCV activity of artemisinin was examined using ORL8 cells. An experimental scale and schedule are the same as those in Example 1.
Artemisinin and vitamin E were simultaneously added so that the concentrations of artemisinin and vitamin E were set to 100 μM and 10 μM, respectively. The luciferase activity was measured 72 hours after the culture.

[6] = system: HCV-RNA replication in OR6 cells (HCV-O strain, HuH-7-derived); assay: microbe, parasite or virus in culture
Text: as §1, §3, §2
OR6 cells, which had been cultured in general medium for subculture, were plated onto a 24-well plate (2×10^4 cells in 1 mL of medium for […] cell line per well) and cultured. After 24 hours, N-89 was added so as to achieve concentrations of 20 μM, a 2-fold dilution series from 20 μM (10, 5, 2.5, 1.3, 0.63, and 0.31 μM), and 0, or N-251 was added so as to achieve concentrations of 10 μM, a 2-fold dilution series from 10 μM (5, 2.5, 1.3, 0.63, 0.31, and 0.16 μM), and 0. The renilla luciferase activities were measured 72 hours after the culture. N-89 and N-251 were diluted with DMSO.
as §4, §5

[7] = Cytotoxic effect, WST-1 cell proliferation assay in OR6 cells; conditions: human
Text: as §1, §2
After 24 hours, N-89 was added so as to achieve concentrations of 20 μM, a 2-fold dilution series from 20 μM (10, 5, 2.5, 1.3, 0.63, and 0.31 μM), and 0, or N-251 was added so as to achieve concentrations of 10 μM, a 2-fold dilution series from 10 μM (5, 2.5, 1.3, 0.63, 0.31, and 0.16 μM), and 0.
The cytotoxic effect of artemisinin was examined using OR6 and ORL8 cells and the CC50 values were calculated. […]

Question: For CC(C)n1c(/C=C/C(O)CC(O)CC(=O)O)c(-c2ccc(F)cc2)c2ccccc21 (centres unmarked) [FLV, Fluvastatin, reference compound], which CC50 at 72 h [1] is on record?
Answer: The CC50 at 72 h was 21 µM.

Question: For O=[N+]([O-])[O-].[K+] [KNO3], which “change in luciferase activity, oxidizing agent alone” value [2] is on record?
Answer: The value was “no change”.

Question: For [Na+].[O-][Cl+3]([O-])([O-])[O-] [NaClO4], which “change in luciferase activity, oxidizing agent alone” value [2] is on record?
Answer: Its value is “no change”.

Question: Which EC50 ([3]; Hepatitis C virus, ORL8, 72 h) does the source give for C[C@@H]1CC[C@H]2[C@@H](C)C(=O)O[C@@H]3O[C@@]4(C)CC[C@@H]1[C@]32OO4 [artemisinin, reference compound] here?
Answer: The EC50 was 23 µM.

Question: What about the “SI (CC50/EC50)” value ([3]; ORL8 cells) of the same molecule?
Answer: The value was 16.

Question: And the CC50 at 72 h [1]?
Answer: The CC50 at 72 h was 368 µM.

Question: And the anti-HCV activity [4]?
Answer: Its anti-HCV activity is “weak”.

Question: And the “luciferase activity, artemisinin in combination with vitamin E” value ([5]; 100 μM + vitamin E 10 μM, 72 hours)?
Answer: The value was 53%.

Question: And the “luciferase activity, artemisinin alone” value ([5]; 100 μM, 72 hours)?
Answer: The value was 23%.

Question: And the “canceling of the anti-HCV activity by vitamin E” value [5]?
Answer: The value was “not canceled”.

Question: And the EC50 ([6]; Hepatitis C virus, OR6, 72 h)?
Answer: The EC50 was 81 µM.

Question: And the “anti-HCV activity (judgement)” value ([6]; OR6 and ORL8 cells)?
Answer: Its value is “very weak anti-HCV activity”.

Question: And the “SI (CC50/EC50)” value ([6]; OR6 cells)?
Answer: Its value is 5.

Question: What about the CC50 at 72 h [7] of the same molecule?
Answer: The CC50 at 72 h was 380 µM.

Question: For IFN-α, which “canceling of the anti-HCV activity by vitamin E” value [5] is on record?
Answer: The value was “slightly found”.

Question: For vitamin E [reference compound], which “luciferase activity, vitamin E alone” value ([5]; vitamin E 10 μM alone, 72 hours) is on record?
Answer: The value was 217% and 194%.

Question: What about the “increase of luciferase activity, vitamin E alone” value ([5]; vitamin E 10 μM alone, 72 hours (Comparative Example 2)) of the same molecule?
Answer: Its value is “about 3 fold”.
